Values after ≈ are worked out from the molar mass of the structure shown. Read-outs that look alike come from different tables or passages of the source.
Experiments:
[1] = Relative thermal stability (spectrophotometric absorbance); format: physicochemical; conditions: 0.1 mg/mL solution, 24 hours, at λ-max
Method: (§1) The relative thermal and acid stabilities of the complexes were determined spectrometrically. Dilute solutions (0.1 mg/mL) were prepared, their absorption spectra were generated, and the λ-max in each case was noted. The solution of each complex was divided into seven equal portions and the temperature regulated to 20°C, 30°C, 40°C, 50°C, 60°C, 70°C, and 80°C, respectively, for a period of 24 hours. The absorbance in each case was then measured. Similarly, the same concentration of these solutions was prepared at the pH range of 1–6 and the absorbance was measured. These changes in absorbance with temperature and pH, assuming that Beer-Lambert's law is obeyed, are a measure of the stability of the complexes.

[2] = Relative acid stability (spectrophotometric absorbance); format: physicochemical; conditions: 0.1 mg/mL solution, at λ-max
Method: as §1
The changes in absorbance with pH are a measure of the acid stability of the compounds.

Staphylococcus aureus [3] = assay: microbe, parasite or virus in culture; format: cell-based; conditions: read-out: Inhibition zone diameter
Bacillus subtilis [4] = assay: microbe, parasite or virus in culture; format: cell-based; conditions: read-out: Inhibition zone diameter
Pseudomonas aeruginosa [5] = assay: microbe, parasite or virus in culture; format: cell-based; conditions: read-out: Inhibition zone diameter
Escherichia coli [6] = assay: microbe, parasite or virus in culture; format: cell-based; conditions: read-out: Inhibition zone diameter
Salmonella typhi [7] = assay: Agar well diffusion, inhibition zone diameter; format: cell-based; conditions: Salmonella enterica, 24 h, read-out: Inhibition zone diameter
Shigella spp. [8] = assay: microbe, parasite or virus in culture; format: cell-based; conditions: 24 h, read-out: Inhibition zone diameter
Aspergillus niger [9] = assay: Agar well diffusion, inhibition zone diameter; format: cell-based; conditions: 48 h, read-out: Inhibition zone diameter
Staphylococcus aureus [10] = assay: microbe, parasite or virus in culture; format: cell-based; conditions: read-out: Minimum inhibitory concentration (MIC)
Bacillus subtilis [11] = assay: microbe, parasite or virus in culture; format: cell-based; conditions: read-out: Minimum inhibitory concentration (MIC)
Pseudomonas aeruginosa [12] = assay: microbe, parasite or virus in culture; format: cell-based; conditions: read-out: Minimum inhibitory concentration (MIC)
Escherichia coli [13] = assay: microbe, parasite or virus in culture; format: cell-based; conditions: read-out: Minimum inhibitory concentration (MIC)
Salmonella typhi [14] = assay: Minimum inhibitory concentration (dilutions, plot of IZD^2 against log concentration); format: cell-based; conditions: Salmonella enterica, read-out: Minimum inhibitory concentration (MIC)
Shigella spp. [15] = assay: microbe, parasite or virus in culture; format: cell-based; conditions: read-out: Minimum inhibitory concentration (MIC)
Aspergillus niger [16] = assay: microbe, parasite or virus in culture; format: cell-based; conditions: read-out: Minimum inhibitory concentration (MIC)
[17] = Relative acid stability (spectrophotometric absorbance); format: physicochemical; conditions: 0.1 mg/mL solution, at λ-max; remark: listed apart in the source
[18] = Method: Saturated solution (10 mL) of each of the complexes and ligands at ambient temperature (28°C) was evaporated to dryness in an evaporating dish. The mass of the solid left in each case was determined. The solubilities were calculated using the relation: (1) S=mass/volume×1000. The solubilities of the complexes were compared with those of the ligands.
The solubilities were determined at 28°C.

Structure (SMILES) | Absorbance at 20°C [1] | Absorbance at 30°C [1] | Absorbance at 40°C [1] | Absorbance at 50°C [1] | Absorbance at 60°C [1] | Absorbance at 70°C [1] | Absorbance at 80°C [1] | Absorbance at pH 1 [2] | Absorbance at pH 2 [2] | Absorbance at pH 3 [2] | Absorbance at pH 4 [2] | Absorbance at pH 5 [2] | Absorbance at pH 6 [2] | zone of inhibition at 5000 µg/mL (Salmonella typhi [7]) | zone of inhibition at 5000 µg/mL (Shigella spp. [8]) | zone of inhibition at 5000 µg/mL (Aspergillus niger [9]) | MIC (Salmonella typhi [14]) | MIC (Shigella spp. [15]) | Absorbance at pH 7 [17] | other results
CC1(C)S[C@@H]2[C@H](NC(=O)[C@H](N)c3ccc(O)cc3)C(=O)N2[C@H]1C(=O)O [Amoxicillin] | 0.661 | 0.664 | 0.643 | 0.428 | 0.369 | 0.312 | 0.126 | 0.387 | 0.404 | 0.499 | 0.511 | 0.603 | 0.620 | 35.5 mm | 30 mm | 35 mm | 11 µg/mL (≈ 30.1 µM) | 11 µg/mL (≈ 30.1 µM) | 0.664 | zone of inhibition at 5000 µg/mL (Staphylococcus aureus [3]; 24 h): 30 mm; zone of inhibition at 5000 µg/mL (Bacillus subtilis [4]; 24 h): 30 mm; zone of inhibition at 5000 µg/mL (Pseudomonas aeruginosa [5]; 24 h): 28 mm; zone of inhibition at 5000 µg/mL (Escherichia coli [6]; 24 h): 33 mm; MIC (Staphylococcus aureus [10]): 12.5 µg/mL (≈ 34.2 µM); MIC (Bacillus subtilis [11]): 12.5 µg/mL (≈ 34.2 µM); MIC (Pseudomonas aeruginosa [12]): 14 µg/mL (≈ 38.3 µM); MIC (Escherichia coli [13]): 12.5 µg/mL (≈ 34.2 µM); MIC (Aspergillus niger [16]): 15 µg/mL (≈ 41 µM)
Cc1onc(-c2ccccc2Cl)c1C(=O)N[C@@H]1C(=O)N2[C@@H]1SC(C)(C)[C@@H]2C(=O)O [Cloxacillin] | 0.721 | 0.727 | 0.683 | 0.455 | 0.337 | 0.190 | 0.184 | 0.437 | 0.449 | 0.550 | 0.554 | 0.696 | 0.704 | 27 mm | 30 mm | 30 mm | 14.5 µg/mL (≈ 33.3 µM) | 12.5 µg/mL (≈ 28.7 µM) | 0.722 | Solubility [18]: Negligible; zone of inhibition at 5000 µg/mL (Staphylococcus aureus [3]; S. aureus clinical isolate, 5 mg/mL, 32°C 24 hours): 31.5 mm; zone of inhibition at 5000 µg/mL (Bacillus subtilis [4]; B. subtilis clinical isolate, 5 mg/mL, 32°C 24 hours): 32 mm; zone of inhibition at 5000 µg/mL (Pseudomonas aeruginosa [5]; P. aeruginosa clinical isolate, 5 mg/mL, 32°C 24 hours): 20 mm; zone of inhibition at 5000 µg/mL (Escherichia coli [6]; E. coli clinical isolate, 5 mg/mL, 32°C 24 hours): 28 mm; MIC (Staphylococcus aureus [10]; S. aureus clinical isolate): 12.5 µg/mL (≈ 28.7 µM); MIC (Bacillus subtilis [11]; B. subtilis clinical isolate): 12.5 µg/mL (≈ 28.7 µM); MIC (Pseudomonas aeruginosa [12]; P. aeruginosa clinical isolate): 22 µg/mL (≈ 50.5 µM); MIC (Escherichia coli [13]; E. coli clinical isolate): 14.5 µg/mL (≈ 33.3 µM); MIC (Aspergillus niger [16]; A. niger clinical isolate): 14.5 µg/mL (≈ 33.3 µM)

From publication PMC4258349 (International Journal of Medicinal Chemistry, 2014)
